Reference: US20210282378A1, “Mutant Mouse-Derived Pancreatic Organoid and Method for Evaluating Standardized Drug for Efficacy” (Seoul National University R&DB Foundation, priority 2018, published 2021)

Assays:
[1] = system: pancreatic organoids derived from BRCA2 gene-deleted mice (Brca2^F11/F11; CreER™); assay: Drug responsiveness of pancreatic organoids with normal or exon 11-deleted BRCA2, observed with an inverted microscope; format: cell-based, mouse; conditions: alone or in combination with 200 nM TSA, with vs without BRCA2 exon 11 deletion, FIG. 6
Protocol: With reference to the method of Example 2 above, pancreatic organoids derived from BRCA2 gene-deleted mice (Brca2^F11/F11; CreER™) were prepared. To induce a partial deletion of BRCA2 gene (deletion of exon 11 of BRCA2 gene), 4-hydroxytamoxifen (4-OHT) was added to the organoids in an amount of 400 nM, and the resulting organoids were cultured for 3 weeks or more (see Example 2). For comparison, organoids not treated with 4-OHT (in which BRCA2 gene is normal) were also prepared.
Organoids having normal BRCA2 gene (not treated with 4-OHT) and organoids with a partial deletion of BRCA2 (exon 11 deletion) were seeded in equal amounts into 24-well plates. On the day after seeding, the organoids were treated with a mixture of the anticancer agent histone deacetylase inhibitor (HDACi) and a culture medium (see Example 2).
3 days after treatment (first treatment) with HDACi, the culture medium was replaced with a fresh medium, and treatment (second treatment) with each HDACi was performed again at the concentration shown in Table 3. Here, the primary treatment with HDACi was performed about 24 to 48 hours after seeding of the organoids, and 3 days after that, the second treatment was performed.

[2] = system: pancreatic organoids from Kras^G12D mutant mice; format: cell-based, mouse; conditions: FIG. 14A
Protocol: The organoids were treated with 0 μM, 200 μM or 500 μM of the drug, followed by analysis of GFP (see FIG. 14A).

[3] = system: normal pancreatic organoids; assay: Effect of Resveratrone on normal organoids; format: cell-based, mouse; conditions: 0, 200 or 500 μM
Protocol: Pancreatic tissue isolated from the genetically mutated mice described in Examples 1 to 7 above was dissociated. Cell pellets containing ductal cells were collected from the dissociated pancreatic tissue. The collected cell pellets were grown with a biomatrix in a cell incubator at 37° C. under 5% CO2. Thereafter, the produced organoids were grown in an organoid culture medium until 75% or more thereof grew to a diameter of 200 to 500 μm. […] The organoids were treated with a drug diluted in an organoid culture medium. […] As a result of the measurement, it could be confirmed that, when the above-described drug treatment method was used, it was possible to track the drug responsiveness of each organoid, which was a limitation of a conventional drug screening method using organoids, and drug treatment in a uniform size state was possible. […] As the maximum value of the average diameter of the collected organoids increases, the difference in size (average diameter) between the organoids included increases, so that the difference in responsiveness to the same drug between the organoids increases. Thus, in order to obtain a uniform drug responsiveness result, it is important to determine the upper limit of the size (average diameter) of the organoids. […]

[4] = system: mouse-derived normal organoids; assay: p53 expression level by Western blot, normal organoids; format: cell-based; conditions: two treatments 72 hours apart, day 5 after primary treatment; FIG. 15
Protocol: (§1) The mouse-derived organoids described in Examples 1 to 7 or patient-derived organoids were primarily treated with a drug, and after 72 hours, secondarily treated with the drug. As the drug, Resveratrone used in Examples 9 and 10 was used. On day 2 after the secondary drug treatment (day 5 after the primary drug treatment), the cell culture medium was removed, and then the cells were washed with 1 ml of PBS. After removal of PBS, the cells were mechanically dissociated with 500 μl of a recovery solution. The cell solution was agitated at 50 to 70 rpm at 4° C. for 1 hour, transferred into a microtube, and then centrifuged at 1200 rpm for 5 minutes, followed by removal of the supernatant. The remaining pellet was lysed with NETN buffer, and then sonicated using a sonicator for 1 minute with an output of 2 to 3 and centrifuged at 12,000 rpm for 20 to 30 minutes, and the supernatant was collected. The supernatant was quantified to 100 to 120 μg using Bradford assay, and then loaded onto a 10% polyacrylamide gel, followed by SD S-PAGE (Sodium Dodecyl Sulfate-Polyacrylamide gel electrophoresis) gel running. Then, the gel was transferred to a nitrocellulose membrane, and the transferred membrane was blocked with 5% skim milk while stirring at 50 rpm for 1 hour at RT. […]

[5] = system: mutant organoids (cancer-like); assay: p53 expression level by Western blot, mutant organoids; format: cell-based, mouse; conditions: two treatments 72 hours apart, day 5 after primary treatment; FIG. 15
Protocol: as §1

[6] = system: patient-derived organoids; assay: p53 expression level by Western blot, patient-derived organoids; format: cell-based, human; conditions: two treatments 72 hours apart, day 5 after primary treatment; FIG. 15
Protocol: as §1

SMILES: CC[C@@H]1C(=O)N(C)c2cnc(Nc3ccc(C(=O)NC4CCN(C)CC4)cc3OC)nc2N1C1CCCC1 [BI2536]
- responsiveness to the tested drugs (state of the organoids) ([1]; 10 nM): did differ depending on the presence or absence of the BRCA2 gene

SMILES: O=C(c1cc(Cc2n[nH]c(=O)c3ccccc23)ccc1F)N1CCN(C(=O)C2CC2)CC1 [Olaparib]
- responsiveness to the tested drugs (state of the organoids) ([1]; 10 μM): did differ depending on the presence or absence of the BRCA2 gene

SMILES: CC(=O)/C=C/c1ccc2cc(O)cc(O)c2c1 [Resveratrone]
- GFP / green fluorescence of dying cells ([2]; 200 μM): exhibited fluorescence
- GFP / cell death ([2]; 500 μM): cell death occurred and GFP decreased
- effect of the drug on normal pancreatic organoids [3]: no effect
- expression level of p53 [4]: increased
- expression level of p53 [5]: did not increase
- expression level of p53, normal vs cancer tendency [6]: this tendency was also found in the patient-derived organoids
